Source: US20260022143A1, “Cyclic Peptide Inhibitors of IL-23” (JANSSEN PHARMACEUTICA NV, priority 2022, published 2026)
Positions of bridges follow the written chain, without caps; N, C: chain ends. Non-standard residues stand in square brackets, D forms with d. Residues, ends and D or L forms follow the SMILES beside them. *: point of attachment. Trp(7-Me) = Cc1cccc2c(C[C@H](N)C(=O)O)c[nH]c12; Hexanoyl(6-NMe3+) = C[N+](C)(C)CCCCCC(=O)*; 2Nal = N[C@@H](Cc1ccc2ccccc2c1)C(=O)O; AEF = NCCOc1ccc(C[C@H](N)C(=O)O)cc1; Piperazinyl(4-Me) = CN1CCN(*)CC1; 3Pal = N[C@@H](Cc1cccnc1)C(=O)O; Lys(Me) = CNCCCC[C@H](N)C(=O)O; Pen = CC(C)(S)[C@H](N)C(=O)O; Thp = NC1(C(=O)O)CCOCC1; Dap = NC[C@H](N)C(=O)O; X3 = C[N+](C)(C)CCCCC*; Me2NCH2CH2 = CN(C)CC*; X25 = COCCOCCN(C)*; Sar = CNCC(=O)O

What was measured:
[1] = Exposed Polar Surface Area (EPSA); type: physicochemical; conditions: SFC on Chirex 3014 column; sample 1 mM DMSO stock; read-out: EPSA
Method in brief: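 SFC retention on a Chirex 3014 (S)-valine/(R)-1-(α-naphthyl)ethylamine column, 35 °C, CO2 with MeOH (20 mM ammonium formate) gradient 5–60% at 20%/min, 14 MPa outlet. Retention times converted to EPSA (Å^2) via linear calibration with 8 standards; samples from 1 mM DMSO stock, run in duplicate.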

IL-23R = molecular target: T1, IL-23R (Homo sapiens, UniProt Q5VWK5); test: IL23R Reporter Assay; type: cell-based; conditions: HEK293 cells containing IL-23R, IL-12RP1 and STAT-inducible firefly luciferase reporter; 10 ng/mL IL-23 (EC90); 5 h at 37° C.; read-out: IL23R Reporter Assay
T1 construct: host or cells: HEK293
T1 sequence (Q5VWK5 24-629): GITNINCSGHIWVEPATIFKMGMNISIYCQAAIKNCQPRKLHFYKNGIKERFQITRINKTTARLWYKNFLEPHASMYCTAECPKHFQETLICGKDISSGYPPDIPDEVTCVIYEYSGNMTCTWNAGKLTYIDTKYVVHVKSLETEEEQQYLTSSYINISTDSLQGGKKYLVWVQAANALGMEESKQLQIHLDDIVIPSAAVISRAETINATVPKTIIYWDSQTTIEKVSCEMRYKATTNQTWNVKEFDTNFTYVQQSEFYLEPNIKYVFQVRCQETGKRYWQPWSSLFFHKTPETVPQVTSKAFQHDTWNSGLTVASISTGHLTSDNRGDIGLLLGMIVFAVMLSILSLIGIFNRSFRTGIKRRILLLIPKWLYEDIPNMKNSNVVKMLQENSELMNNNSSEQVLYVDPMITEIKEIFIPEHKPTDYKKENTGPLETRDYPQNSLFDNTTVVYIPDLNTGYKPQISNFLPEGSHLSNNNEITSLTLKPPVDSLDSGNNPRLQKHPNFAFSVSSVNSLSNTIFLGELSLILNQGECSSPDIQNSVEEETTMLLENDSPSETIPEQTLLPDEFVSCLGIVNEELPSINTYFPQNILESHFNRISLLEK

Cc1cccc2c(C[C@@H]3NC(=O)[C@H]([C@@H](C)O)NC(=O)[C@H](CC(=O)N(C)C)NC(=O)[C@@H](NC(=O)CCCCC[N+](C)(C)C)C(C)(C)SSC(C)(C)[C@@H](C(=O)N[C@@H](Cc4ccc(OCCCCC[N+](C)(C)C)cc4)C(=O)N[C@@H](Cc4ccc5ccccc5c4)C(=O)NC4(C(=O)N[C@@H](CCC(=O)N(C)C)C(=O)N[C@@H](CC(N)=O)C(=O)N[C@@H](Cc5cccnc5)C(=O)N(C)CC(=O)N(C)C)CCOCC4)NC(=O)[C@H](CCC(=O)N(C)C)NC3=O)c[nH]c12 [compound 101, 5cpaCO-Pen(3)-N(N(Me)2)-T-7MeW-Q(N(Me)2)-Pen(3)-TMAPF-2Nal-THP-Q(N(Me)2)-N-3Pya-Sar-CON(Me)2] ({Hexanoyl(6-NMe3+)}-[Pen]D(NMe2)T[Trp(7-Me)]E(NMe2)[Pen]Y(X3)[2Nal][Thp]E(NMe2)N[3Pal][Sar]-NMe2; disulfide 1-6)
EPSA [1]: 145 A^2 | IC50 (IL-23R): 5.2 nM

CC(=O)NCCCC[C@@H]1NC(=O)[C@H](Cc2c[nH]c3c(C)cccc23)NC(=O)[C@H]([C@@H](C)O)NC(=O)[C@H](CC(N)=O)NC(=O)[C@@H](NC(=O)CCCCC[N+](C)(C)C)C(C)(C)SSC(C)(C)[C@@H](C(=O)N[C@@H](Cc2ccc(OCCN(C)C)cc2)C(=O)N[C@@H](Cc2ccc3ccccc3c2)C(=O)NC2(C(=O)N[C@@H](CNC(C)=O)C(=O)N[C@@H](CC(N)=O)C(=O)N[C@@H](Cc3cccnc3)C(=O)N(C)CC(N)=O)CCOCC2)NC1=O [compound 103] ({Hexanoyl(6-NMe3+)}-[Pen]NT[Trp(7-Me)]K(Ac)[Pen]Y(Me2NCH2CH2)[2Nal][Thp][Dap](Ac)N[3Pal][Sar]-NH2; disulfide 1-6 (inferred))
EPSA [1]: 158 A^2 | IC50 (IL-23R): 5.4 nM

CC(=O)N[C@@H]1C(=O)N[C@@H](CC(=O)N(C)C)C(=O)N[C@@H]([C@@H](C)O)C(=O)N[C@@H](Cc2c[nH]c3c(C)cccc23)C(=O)N[C@@H](CCCCN(C)C(C)=O)C(=O)N[C@H](C(=O)N[C@@H](Cc2ccc(OCCN(C)C)cc2)C(=O)N[C@@H](Cc2ccc3ccccc3c2)C(=O)NC2(C(=O)N[C@@H](CCC(=O)O)C(=O)N[C@@H](CC(N)=O)C(=O)N[C@@H](Cc3cccnc3)C(=O)N(C)CC(=O)N(C)C)CCOCC2)C(C)(C)SSC1(C)C [compound 106, MeCO-Pen(3)-N(N(Me)2)-T-7MeW-K(NMeAc)-Pen(3)-AEF(N(Me)2)-2Nal-THP-E-N-3Pya-Sar-CON(Me)2] (Ac-[Pen]D(NMe2)T[Trp(7-Me)][Lys(Me)](Ac)[Pen]Y(Me2NCH2CH2)[2Nal][Thp]EN[3Pal][Sar]-NMe2; disulfide 1-6 (inferred))
EPSA [1]: 153 A^2 | IC50 (IL-23R): 6.5 nM

COCCOCCN(C)C(=O)CN(C)C(=O)[C@H](Cc1cccnc1)NC(=O)[C@H](CC(N)=O)NC(=O)[C@H](CCC(=O)O)NC(=O)C1(NC(=O)[C@H](Cc2ccc3ccccc3c2)NC(=O)[C@H](Cc2ccc(OCCN)cc2)NC(=O)[C@H]2NC(=O)[C@H](CCCCNC(C)=O)NC(=O)[C@H](Cc3c[nH]c4c(C)cccc34)NC(=O)[C@H]([C@@H](C)O)NC(=O)[C@H](CC(N)=O)NC(=O)[C@@H](NC(C)=O)C(C)(C)SSC2(C)C)CCOCC1 [compound 113] (Ac-[Pen]NT[Trp(7-Me)]K(Ac)[Pen][AEF][2Nal][Thp]EN[3Pal][Sar]-X25; disulfide 1-6 (inferred))
EPSA [1]: 169 A^2 | IC50 (IL-23R): 3.8 nM

CC(=O)NCCCC[C@@H]1NC(=O)[C@H](Cc2c[nH]c3c(C)cccc23)NC(=O)[C@H]([C@@H](C)O)NC(=O)[C@H](CC(N)=O)NC(=O)[C@@H](NC(C)=O)C(C)(C)SSC(C)(C)[C@@H](C(=O)N[C@@H](Cc2ccc(OCCN)cc2)C(=O)N[C@@H](Cc2ccc3ccccc3c2)C(=O)NC2(C(=O)N[C@@H](CCC(=O)O)C(=O)N[C@@H](CC(N)=O)C(=O)N[C@@H](Cc3cccnc3)C(=O)N(C)CC(=O)N3CCN(C)CC3)CCOCC2)NC1=O [compound 114] (Ac-[Pen]NT[Trp(7-Me)]K(Ac)[Pen][AEF][2Nal][Thp]EN[3Pal][Sar]-{Piperazinyl(4-Me)}; disulfide 1-6 (inferred))
EPSA [1]: 173 A^2 | IC50 (IL-23R): 28 nM

CC(=O)N[C@@H]1C(=O)N[C@@H](CC(=O)N(C)C)C(=O)N[C@@H]([C@@H](C)O)C(=O)N[C@@H](Cc2c[nH]c3c(C)cccc23)C(=O)N[C@@H](CCC(=O)N(C)C)C(=O)N[C@H](C(=O)N[C@@H](Cc2ccc(OCCN(C)C)cc2)C(=O)N[C@@H](Cc2ccc3ccccc3c2)C(=O)NC2(C(=O)N[C@@H](CCC(=O)N(C)C)C(=O)N[C@@H](CC(N)=O)C(=O)N[C@@H](Cc3cccnc3)C(=O)N(C)CC(=O)N(C)C)CCOCC2)C(C)(C)SSC1(C)C [compound 118, MeCO-Pen(3)-N(N(Me)2)-T-7MeW-Q(N(Me)2)-Pen(3)-AEF(N(Me)2)-2Nal-THP-Q(N(Me)2)-N-3Pya-Sar-CON(Me)2] (Ac-[Pen]D(NMe2)T[Trp(7-Me)]E(NMe2)[Pen]Y(Me2NCH2CH2)[2Nal][Thp]E(NMe2)N[3Pal][Sar]-NMe2; disulfide 1-6 (inferred))
EPSA [1]: 138 A^2 | IC50 (IL-23R): 2.1 nM

CC(=O)N[C@@H]1C(=O)N[C@@H](C)C(=O)N[C@@H]([C@@H](C)O)C(=O)N[C@@H](Cc2c[nH]c3c(C)cccc23)C(=O)N[C@@H](C)C(=O)N[C@H](C(=O)N[C@@H](Cc2ccc(OCCN(C)C)cc2)C(=O)N[C@@H](Cc2ccc3ccccc3c2)C(=O)NC2(C(=O)N[C@@H](CCC(=O)O)C(=O)N[C@@H](CC(N)=O)C(=O)N[C@@H](Cc3cccnc3)C(=O)N(C)CC(=O)N(C)C)CCOCC2)C(C)(C)SSC1(C)C [compound 119] (Ac-[Pen]AT[Trp(7-Me)]A[Pen]Y(Me2NCH2CH2)[2Nal][Thp]EN[3Pal][Sar]-NMe2; disulfide 1-6 (inferred))
EPSA [1]: 159 A^2 | IC50 (IL-23R): 6.3 nM

CC(=O)N[C@@H]1C(=O)N[C@@H](C)C(=O)N[C@@H]([C@@H](C)O)C(=O)N[C@@H](Cc2c[nH]c3c(C)cccc23)C(=O)N[C@@H](C)C(=O)N[C@H](C(=O)N[C@@H](Cc2ccc(OCCN(C)C)cc2)C(=O)N[C@@H](Cc2ccc3ccccc3c2)C(=O)NC2(C(=O)N[C@@H](C)C(=O)N[C@@H](CC(N)=O)C(=O)N[C@@H](Cc3cccnc3)C(=O)N(C)CC(=O)N(C)C)CCOCC2)C(C)(C)SSC1(C)C [compound 121] (Ac-[Pen]AT[Trp(7-Me)]A[Pen]Y(Me2NCH2CH2)[2Nal][Thp]AN[3Pal][Sar]-NMe2; disulfide 1-6)
EPSA [1]: 145 A^2 | IC50 (IL-23R): 13 nM

CC(=O)N[C@@H]1C(=O)N[C@@H](CC(=O)N(C)C)C(=O)N[C@@H]([C@@H](C)O)C(=O)N[C@@H](Cc2c[nH]c3c(C)cccc23)C(=O)N[C@@H](CCCCN(C)C(C)=O)C(=O)N[C@H](C(=O)N[C@@H](Cc2ccc(OCCN(C)C)cc2)C(=O)N[C@@H](Cc2ccc3ccccc3c2)C(=O)NC2(C(=O)N[C@@H](CCCCN(C)C(C)=O)C(=O)N[C@@H](CC(N)=O)C(=O)N[C@@H](Cc3cccnc3)C(=O)N(C)CC(=O)N(C)C)CCOCC2)C(C)(C)SSC1(C)C [compound 122, MeCO-Pen(3)-N(N(Me)2)-T-7MeW-K(NMeAc)-Pen(3)-AEF(N(Me)2)-2Nal-THP-K(NMeAc)-N-3Pya-Sar-CON(Me)2] (Ac-[Pen]D(NMe2)T[Trp(7-Me)][Lys(Me)](Ac)[Pen]Y(Me2NCH2CH2)[2Nal][Thp][Lys(Me)](Ac)N[3Pal][Sar]-NMe2; disulfide 1-6)
EPSA [1]: 141 A^2 | IC50 (IL-23R): 2.1 nM
